Series [1] concerns bik1/pbl1 mutant seedlings. Put plainly: Root growth assay, bik1/pbl1 mutant. It is filed as in vivo, Arabidopsis thaliana. The note with it: bik1/pbl1, 1 µM. The source says: The Arabidopsis thaliana accession Columbia-0 (Col-0) was used as wild type (WT). T-DNA insertion mutants of mik2-1 (SALK_061769), mik2-2 (SALK_046987), mik2-like (SALK_112341), and rlk7-3 (SALK_120595) were obtained from the Nottingham Arabidopsis Stock Centre (NASC). The fls2 (SALK_141277), bak1-4, bik1-1/pbl1-1, bak1-5/serk4-1, rbohd mutants, and the transgenic line expressing p35S::GFP have been reported previously[19],[62],[63]. The hae/hsl2 mutant was kindly provided by Dr. Reidunn B. Aalen (University of Oslo, Norway), the pepr1-2/pepr2-2 (pepr1,2) mutant by Dr. Zhi Qi (Inner Mongolia University, China), the scoop12 mutant by Dr. Sébastien Aubourg (INRA, France), a transgenic line expressing p35S::Aequorin by Dr. Marc Knight (Durham University, UK), transgenic line expressing pMYB51::GUS by Dr. Frederick M. Ausubel (Harvard Medical School, USA). […]
Cold stratified seeds were surface-sterilized with 70% (v/v) ethanol for 5 min and were sown on ½MS plates with or without peptides at indicated concentrations. Ten-day-old seedlings grown on plates vertically in a growth chamber were photographed, and the root lengths of seedlings were measured using Image J (http://rsb.info.nih.gov/ij/).

The test system of series [2] is MPK3, MPK4 and MPK6 phosphorylation, mik2-1 seedlings. Kind of series: MAPK assay (α-pERK1/2 immunoblot), mik2-1. It is filed as in vivo, Arabidopsis thaliana. More on the design: dose or concentration left out as unconfirmed. The note with it: mik2-1, α-pERK1/2 immunoblot. (In general: A western blot detects proteins with antibodies after separation by electrophoresis.)

Series [3] relates to WRKY30, WRKY33 and CYP81F2 expression, WT seedlings. Kind of series: RT-qPCR of defense genes, WT. It is filed as in vivo, Arabidopsis thaliana.
In another series the test system is MIK2-BAK1 association. Kind of series: Co-immunoprecipitation MIK2-BAK1. It is filed as cell-based, Arabidopsis thaliana. The conditions noted are these: co-IP. As for the experimental part:
For co-IP assays in protoplasts, protoplasts were co-transfected with pHBT-35S::MIK2-HA and pHBT-35S::BAK1-FALG or pHBT-35S::SERK4-FLAG at 50 μg DNA for 500 μL protoplasts at the density of 2 × 10^5/mL for each sample and were incubated for 12 h. After treatment with 1 µM SCOOP peptides for 15 min, samples were collected by centrifugation at 200 × g for 2 min and lysed in 300 μL IP buffer (20 mM Tris-HCl, pH 7.5, 100 mM NaCl, 1 mM EDTA, 2 mM DTT, 10% [v/v] Glycerol, 0.5% [v/v] Triton X-100 and protease inhibitor cocktail from Sigma) by vortexing. After centrifugation at 10,000 × g for 10 min at 4 °C, 30 μL of supernatant was collected for input controls. The remaining supernatant was pre-incubated with protein-G-agarose beads at 4 °C for 1 h with gentle shaking at […] on a rocker. IP was carried out with α-FLAG agarose for 3 h at 4 °C. Beads were collected by 500 × g centrifugation for 2 min and washed three times with washing buffer (20 mM Tris-HCl, pH 7.5, 100 mM NaCl, 1 mM EDTA, 0.1% [v/v] Triton X-100) and once with 50 mM Tris-HCl, pH 7.5. Immunoprecipitated proteins and input proteins were analyzed by immunoblotting with α-HA (1:3000; Roche, Cat # 12013819001) or α-FLAG antibodies (1:3000; Sigma-Aldrich, Cat # A8592).
For co-IP assays in transgenic seedlings, leaves of 4-week-old pMIK2::MIK2-GFP transgenic plants were hand-inoculated with 1 μM SCOOP10^B or SCOOP12 and were treated for 30 min, followed by total protein isolation with extraction buffer (50 mM Tris-HCl, pH 7.5, 150 mM NaCl, 1% [v/v] NP-40 and 1:200 protease inhibitor cocktail from Sigma). Co-IP was carried out the same as for co-IP with protoplasts except that GFP-Trap agarose beads (Chromotek) were used instead. Immunoprecipitated proteins and input proteins were analyzed by immunoblotting with α-GFP (1:3500; Roche, Cat # 11814460001) or α-BAK1 antibodies (1:2000)[64].

Series [4] concerns gene expression, RLK7^ECD-MIK2^TK/rlk7 seedlings. Put plainly: RNA-Seq, RLK7^ECD-MIK2^TK/rlk7. The note with it: for gene expression fold change: RLK7ECD-MIK2TK/rlk7, 1 μM PIP1 vs Ctrl, 1 h. It is filed as in vivo, Arabidopsis thaliana. On the procedure:
Seedlings were then treated with or without 1 μM PIP1 or SCOOP12 for 1 or 6 h and harvested for RNA isolation. Total RNAs (5 μg) from two biological replicates were pooled for cDNA library construction. cDNA library preparation and sequencing were carried out on an Illumina HiSeq 4000 platform with 150-nucleotide pair-end reads in LC-BIO (Hangzhou, China). Total reads were mapped to the Arabidopsis genome (TAIR10; www.arabidopsis.org) with Hisat, and the read counts for every gene were generated with StringTie. The expression levels of genes were calculated by quantifying the cDNA fragments per kilobase of transcript per million fragments mapped (FPKM). Differentially expressed genes (DEGs) between different treatments were defined by fold change of read counts at 1 and 6 h compared to that at 0 h (differential expression analysis using edgeR, fold change ≥ 2 with p-value ≤ 0.01). DEGs were listed in Supplementary Data 2.

We go through two substances from article PMC8448819, “The Arabidopsis MIK2 receptor elicits immunity by sensing a conserved signature from phytocytokines and microbes” (Nature Communications, 2021).

As for “PNGDIFTGPSGSGHGGGR [SCOOP10B, synthesized SCOOP peptide corresponding to the SxS motif]”, the “root growth inhibition in bik1/pbl1” value in series [1] is recorded as “significantly compromised in the bik1/pbl1 mutant”. Besides, the “MAPK activation in mik2” value in series [2] was “abolished in mik2 mutants”. In addition, in series [3] (1 µM, 1 h, RT-qPCR), the “WRKY30, WRKY33 and CYP81F2 expression” value is listed as “upregulation”. The “CYP81F2 expression (Fig. 3i)” value came to 82.36 in series [3] (repeat 1), 146.22 in series [3] (repeat 2), 132.08 in series [3] (repeat 3) and 187.19 in series [3] (repeat 4). In the series on MIK2-BAK1 association (pMIK2::MIK2-GFP/mik2 leaves, 1 μM, 30 min), the “MIK2-BAK1 association” value is on record as “stimulated upon the treatment”. The “MIK2-BAK1 association in protoplasts” value with MIK2-BAK1 association (protoplasts, MIK2-HA and BAK1-FLAG, 15 min) is recorded as “also observed in protoplasts”.
Consider “RLASGP(OH)SPRGRGH [PIP1, secreted peptide, ligand of RLK7]”, for which the “small peptide genes induced” value in series [4] (RLK7^ECD-MIK2^TK/rlk7, 1 µM PIP1) was 51 genes. Further, the “expression of SCOOP genes” value in series [4] (RLK7^ECD-MIK2^TK/rlk7, 1 µM PIP1, 0, 1 and 6 h) is “induces the expression of SCOOP genes”. Besides, in series [4] (RLK7^ECD-MIK2^TK/rlk7, 1 µM PIP1, among 51 induced small peptide genes), the “SCOOP, STMP and SCOOP/STMP-like genes induced” value came out at 18 genes. Further, the “gene expression fold change” value in series [4] (gene AT1G53080) came out at 194.45; in series [4] (gene AT5G52400), 19374.61; in series [4] (gene AT5G52700), 11109.32.
